ChEMBL document CHEMBL3885861, “Open TG-GATES”

Organism: Rattus norvegicus
Assay: Open TG-GATES - Regimen: Daily Repeat
Assay type: toxicity, organism-based, Sprague-Dawley
Design: regimen Daily Repeat, gender Male, age 6 weeks
Conditions: in vivo, po, route gavage; for APTT / Bas / Eos / Fbg / Ht / MCH / MCHC / MCV / Mono / Neu / PT / RBC / Ret: tissue Blood; for KIDNEY_L / KIDNEY_R / KIDNEY_TOTAL: tissue Kidney; for ALP / ALT / AST / BUN / CRE / Ca / Cl / DBIL / GLC / IP / K / LDH / Na / PL / RALB / TBIL / TC / TG / TP / gamma-GTP: tissue Plasma
[1] = 0 mg/kg, 72 h, dose level Control, time 3 day
[2] = 0 mg/kg, […], dose level Control, time 7 day
[3] = 0 mg/kg, […], dose level Control, time 14 day
[4] = 0 mg/kg, […], dose level Control, time 28 day
[5] = 60 mg/kg, 72 h, dose level Low, time 3 day
[6] = 60 mg/kg, […], dose level Low, time 7 day
[7] = 60 mg/kg, […], dose level Low, time 14 day
[8] = 60 mg/kg, […], dose level Low, time 28 day

SMILES: CC(=O)Nc1nnc(S(N)(=O)=O)s1 [ACETAZOLAMIDE]
- TERMINAL_BW [1]: 229 g
- APTT [1]: 21.2 s
- Bas [1]: 0%
- Eos [1]: 1%
- Fbg [1]: 302.2 mg/dL
- Ht [1]: 39.4%
- MCH [1]: 21.3 pg
- MCHC [1]: 34%
- MCV [1]: 62.8 fL
- Mono [1]: 3%
- Neu [1]: 16%
- PT [1]: 17 s
- RBC [1]: 628.2 x10_4/ul
- Ret [1]: 6.9%
- KIDNEY_L [1]: 1 g
- KIDNEY_R [1]: 1 g
- KIDNEY_TOTAL [1]: 2 g
- ALP [1]: 1759.2 IU/L
- ALT [1]: 45.6 IU/L
- AST [1]: 81.2 IU/L
- BUN [1]: 17.8 mg/dL
- CRE [1]: 0.1 mg/dL
- Ca [1]: 10.8 mg/dL
- Cl [1]: 106.6 meq/L
- DBIL [1]: 0 mg/dL
- GLC [1]: 193.6 mg/dL
- IP [1]: 7.5 mg/dL
- K [1]: 4.3 meq/L
- LDH [1]: 208.8 IU/L
- Na [1]: 142 meq/L
- PL [1]: 135 mg/dL
- RALB [1]: 3.1 g/dL
- TBIL [1]: 0.008 mg/dL
- TC [1]: 71.2 mg/dL
- TG [1]: 86.2 mg/dL
- TP [1]: 5.5 g/dL
- gamma-GTP [1]: 1.8 IU/L
- TERMINAL_BW [2]: 260.7 g
- TERMINAL_BW [3]: 306.6 g
- TERMINAL_BW [4]: 366.7 g
- APTT [2]: 21.8 s
- Bas [2]: 0%
- Eos [2]: 0.8%
- Ht [2]: 39.7%
- MCH [2]: 21.9 pg
- MCHC [2]: 35.8%
- MCV [2]: 61.1 fL
- Mono [2]: 2.4%
- Neu [2]: 11.8%
- PT [2]: 16.1 s
- RBC [2]: 650.4 x10_4/ul
- Ret [2]: 5.7%
- APTT [3]: 23.3 s
- Bas [3]: 0%
- Eos [3]: 0.8%
- Fbg [3]: 297.2 mg/dL
- Ht [3]: 40%
- MCH [3]: 20.5 pg
- MCHC [3]: 35.3%
- MCV [3]: 58.2 fL
- Mono [3]: 2.2%
- Neu [3]: 14%
- PT [3]: 16.5 s
- RBC [3]: 688.2 x10_4/ul
- Ret [3]: 5.1%
- APTT [4]: 25.9 s
- Bas [4]: 0%
- Eos [4]: 0.6%
- Fbg [4]: 316 mg/dL
- Ht [4]: 44%
- MCH [4]: 19 pg
- MCHC [4]: 34.3%
- MCV [4]: 55.6 fL
- Mono [4]: 2%
- Neu [4]: 12.4%
- RBC [4]: 791.4 x10_4/ul
- Ret [4]: 2.8%
- KIDNEY_L [2]: 1 g
- KIDNEY_R [2]: 1.1 g
- KIDNEY_TOTAL [2]: 2.1 g
- KIDNEY_L [3]: 1.2 g
- KIDNEY_R [3]: 1.2 g
- KIDNEY_TOTAL [3]: 2.4 g
- KIDNEY_L [4]: 1.3 g
- KIDNEY_R [4]: 1.3 g
- KIDNEY_TOTAL [4]: 2.6 g
- ALP [2]: 1905.2 IU/L
- ALT [2]: 37.6 IU/L
- AST [2]: 72.6 IU/L
- BUN [2]: 22 mg/dL
- CRE [2]: 0.2 mg/dL
- Ca [2]: 10.8 mg/dL
- Cl [2]: 106.4 meq/L
- DBIL [2]: 0 mg/dL
- GLC [2]: 203 mg/dL
- IP [2]: 6.9 mg/dL
- K [2]: 4.7 meq/L
- LDH [2]: 193.6 IU/L
- Na [2]: 142.2 meq/L
- PL [2]: 132.6 mg/dL
- RALB [2]: 3.1 g/dL
- TBIL [2]: 0.002 mg/dL
- TC [2]: 63.2 mg/dL
- TG [2]: 101.8 mg/dL
- TP [2]: 5.3 g/dL
- gamma-GTP [2]: 1.6 IU/L
- ALP [3]: 1570.4 IU/L
- AST [3]: 67.2 IU/L
- BUN [3]: 19.8 mg/dL
- CRE [3]: 0.2 mg/dL
- Ca [3]: 10.6 mg/dL
- DBIL [3]: 0 mg/dL
- GLC [3]: 197.6 mg/dL
- IP [3]: 7.4 mg/dL
- K [3]: 4.3 meq/L
- LDH [3]: 171.4 IU/L
- Na [3]: 143.6 meq/L
- PL [3]: 142.4 mg/dL
- RALB [3]: 3.1 g/dL
- TBIL [3]: 0.002 mg/dL
- TC [3]: 67 mg/dL
- TP [3]: 5.7 g/dL
- gamma-GTP [3]: 2.4 IU/L
- ALP [4]: 1140.2 IU/L
- ALT [4]: 40.6 IU/L
- AST [4]: 63.8 IU/L
- BUN [4]: 18.8 mg/dL
- CRE [4]: 0.2 mg/dL
- Cl [4]: 105.4 meq/L
- DBIL [4]: 0 mg/dL
- GLC [4]: 207.8 mg/dL
- IP [4]: 6.2 mg/dL
- K [4]: 4.1 meq/L
- LDH [4]: 138.8 IU/L
- Na [4]: 142.6 meq/L
- RALB [4]: 3.3 g/dL
- TBIL [4]: 0.004 mg/dL
- TC [4]: 69.8 mg/dL
- TG [4]: 178.4 mg/dL
- TP [4]: 6.1 g/dL
- gamma-GTP [4]: 2.2 IU/L
- TERMINAL_BW [5]: 226.3 g
- APTT [5]: 20.3 s
- Bas [5]: 0%
- Eos [5]: 1%
- Fbg [5]: 272.8 mg/dL
- Ht [5]: 39.2%
- MCHC [5]: 34%
- MCV [5]: 60.6 fL
- Mono [5]: 2.6%
- Neu [5]: 15.4%
- PT [5]: 16.8 s
- RBC [5]: 648.4 x10_4/ul
- Ret [5]: 5.3%
- KIDNEY_L [5]: 1 g
- KIDNEY_R [5]: 1 g
- KIDNEY_TOTAL [5]: 2 g
- ALP [5]: 1702 IU/L
- ALT [5]: 42.2 IU/L
- AST [5]: 67.4 IU/L
- BUN [5]: 17 mg/dL
- CRE [5]: 0.2 mg/dL
- Ca [5]: 10.6 mg/dL
- Cl [5]: 106.4 meq/L
- DBIL [5]: 0 mg/dL
- GLC [5]: 185.4 mg/dL
- IP [5]: 7.3 mg/dL
- K [5]: 4.1 meq/L
- LDH [5]: 188.6 IU/L
- Na [5]: 142.8 meq/L
- RALB [5]: 2.9 g/dL
- TBIL [5]: 0 mg/dL
- TC [5]: 73.6 mg/dL
- TG [5]: 137.8 mg/dL
- TP [5]: 5.2 g/dL
- gamma-GTP [5]: 1.4 IU/L
- TERMINAL_BW [6]: 265.9 g
- TERMINAL_BW [7]: 293.1 g
- TERMINAL_BW [8]: 367.2 g
- APTT [6]: 20.2 s
- Bas [6]: 0%
- Eos [6]: 0.8%
- Fbg [6]: 299.4 mg/dL
- Ht [6]: 37%
- MCH [6]: 21.7 pg
- MCV [6]: 61 fL
- Mono [6]: 2.4%
- Neu [6]: 13.4%
- PT [6]: 16.1 s
- RBC [6]: 606.4 x10_4/ul
- Ret [6]: 6.9%
- APTT [7]: 22.7 s
- Bas [7]: 0%
- Eos [7]: 0.8%
- Fbg [7]: 302.4 mg/dL
- MCHC [7]: 35.9%
- MCV [7]: 57.5 fL
- Mono [7]: 2.2%
- Neu [7]: 12.8%
- RBC [7]: 687.6 x10_4/ul
- Ret [7]: 4.3%
- APTT [8]: 23.2 s
- Bas [8]: 0%
- Eos [8]: 1%
- Fbg [8]: 311 mg/dL
- Ht [8]: 42.3%
- MCH [8]: 19.2 pg
- MCHC [8]: 34.3%
- MCV [8]: 56 fL
- Mono [8]: 1.6%
- Neu [8]: 12%
- RBC [8]: 755.4 x10_4/ul
- Ret [8]: 2.9%
- KIDNEY_L [6]: 1.2 g
- KIDNEY_R [6]: 1.3 g
- KIDNEY_TOTAL [6]: 2.5 g
- KIDNEY_L [7]: 1.2 g
- KIDNEY_R [7]: 1.2 g
- KIDNEY_TOTAL [7]: 2.4 g
- KIDNEY_L [8]: 1.4 g
- KIDNEY_R [8]: 1.5 g
- KIDNEY_TOTAL [8]: 2.9 g
- ALP [6]: 1603.6 IU/L
- ALT [6]: 40.6 IU/L
- AST [6]: 69 IU/L
- BUN [6]: 19.6 mg/dL
- CRE [6]: 0.1 mg/dL
- Ca [6]: 10.6 mg/dL
- Cl [6]: 107.4 meq/L
- DBIL [6]: 0 mg/dL
- GLC [6]: 192.2 mg/dL
- IP [6]: 7.2 mg/dL
- K [6]: 4.2 meq/L
- LDH [6]: 140.4 IU/L
- Na [6]: 143.8 meq/L
- PL [6]: 139.6 mg/dL
- RALB [6]: 3 g/dL
- TBIL [6]: 0.002 mg/dL
- TC [6]: 71.8 mg/dL
- TG [6]: 127 mg/dL
- TP [6]: 5.2 g/dL
- gamma-GTP [6]: 1.8 IU/L
- ALP [7]: 1453.4 IU/L
- ALT [7]: 41.2 IU/L
- AST [7]: 65 IU/L
- BUN [7]: 17 mg/dL
- CRE [7]: 0.2 mg/dL
- Ca [7]: 10.5 mg/dL
- Cl [7]: 105.8 meq/L
- DBIL [7]: 0 mg/dL
- GLC [7]: 185.2 mg/dL
- IP [7]: 6.7 mg/dL
- K [7]: 3.8 meq/L
- LDH [7]: 123.6 IU/L
- Na [7]: 144 meq/L
- PL [7]: 140.8 mg/dL
- RALB [7]: 3 g/dL
- TBIL [7]: 0.002 mg/dL
- TC [7]: 65.8 mg/dL
- TG [7]: 152.6 mg/dL
- TP [7]: 5.5 g/dL
- gamma-GTP [7]: 2 IU/L
- ALP [8]: 1253 IU/L
- ALT [8]: 41 IU/L
- AST [8]: 63 IU/L
- BUN [8]: 19 mg/dL
- CRE [8]: 0.2 mg/dL
- Ca [8]: 10.5 mg/dL
- Cl [8]: 106.8 meq/L
- DBIL [8]: 0 mg/dL
- GLC [8]: 184.2 mg/dL
- IP [8]: 6.2 mg/dL
- K [8]: 4 meq/L
- LDH [8]: 129 IU/L
- Na [8]: 143 meq/L
- PL [8]: 142.8 mg/dL
- RALB [8]: 3.1 g/dL
- TBIL [8]: 0.002 mg/dL
- TC [8]: 70.8 mg/dL
- TG [8]: 159.2 mg/dL
- TP [8]: 5.9 g/dL
- gamma-GTP [8]: 2.2 IU/L
- TERMINAL_BW (200 mg/kg, 72 h, dose level Middle, time 3 day): 215.5 g
